Experimental data: patent publication US20100168192A1, “BENZISOXAZOLE DERIVATIVES AS POTASSIUM CHANNEL MODULATORS FOR THE TREATMENT OF E.G. RESPIRATORY DISEASES, EPILEPSY AND CONVULSIONS” (NeuroSearch A/S, priority 2007, published 2010)

Key:
BK channels = biological target: T1, BK channels (Homo sapiens, UniProt Q12791); assay: BK channel opening activity, two-electrode voltage clamp in Xenopus laevis oocytes; format: cell-based
T1 construct: expressed in transfected cells; host or cells: Xenopus laevis oocytes
T1 sequence (Q12791 whole entry): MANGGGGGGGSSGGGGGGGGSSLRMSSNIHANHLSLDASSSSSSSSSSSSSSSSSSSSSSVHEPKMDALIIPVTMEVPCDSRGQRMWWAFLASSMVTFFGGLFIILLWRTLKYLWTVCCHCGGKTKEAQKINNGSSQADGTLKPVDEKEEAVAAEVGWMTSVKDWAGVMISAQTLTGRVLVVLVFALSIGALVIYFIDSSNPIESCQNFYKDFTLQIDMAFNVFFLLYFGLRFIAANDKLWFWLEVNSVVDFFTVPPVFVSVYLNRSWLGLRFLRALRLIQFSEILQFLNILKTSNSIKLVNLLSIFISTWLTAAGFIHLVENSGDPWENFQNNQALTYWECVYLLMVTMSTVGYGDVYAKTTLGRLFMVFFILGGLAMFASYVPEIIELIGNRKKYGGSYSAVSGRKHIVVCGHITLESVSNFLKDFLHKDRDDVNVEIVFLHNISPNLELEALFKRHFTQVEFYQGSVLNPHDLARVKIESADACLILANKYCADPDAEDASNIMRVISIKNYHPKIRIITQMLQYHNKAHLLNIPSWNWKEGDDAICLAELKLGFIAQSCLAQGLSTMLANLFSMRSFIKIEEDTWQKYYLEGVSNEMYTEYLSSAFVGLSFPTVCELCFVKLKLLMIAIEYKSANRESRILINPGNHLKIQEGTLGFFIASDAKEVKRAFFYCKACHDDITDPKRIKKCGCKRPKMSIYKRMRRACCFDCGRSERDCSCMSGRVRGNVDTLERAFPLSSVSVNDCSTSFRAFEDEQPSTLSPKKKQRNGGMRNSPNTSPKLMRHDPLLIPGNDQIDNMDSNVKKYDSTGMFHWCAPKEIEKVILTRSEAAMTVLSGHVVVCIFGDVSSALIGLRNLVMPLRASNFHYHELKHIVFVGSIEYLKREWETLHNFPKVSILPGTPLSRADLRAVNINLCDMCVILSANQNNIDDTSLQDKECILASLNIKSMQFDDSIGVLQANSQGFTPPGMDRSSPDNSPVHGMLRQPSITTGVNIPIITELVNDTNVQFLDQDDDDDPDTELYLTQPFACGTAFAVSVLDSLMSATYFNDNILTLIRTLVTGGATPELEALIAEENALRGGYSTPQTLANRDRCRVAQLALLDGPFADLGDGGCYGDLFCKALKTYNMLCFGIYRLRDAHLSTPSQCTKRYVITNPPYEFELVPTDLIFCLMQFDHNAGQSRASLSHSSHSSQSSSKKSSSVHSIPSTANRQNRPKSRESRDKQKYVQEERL
Experimental: In this example the BK channel opening activity of Compound 1 (i.e. N-(2-Benzo[d]isoxazol-3-yl-acetyl)-methanesulfonamide) is determined using BK channels heterologously expressed in Xenopus laevis oocytes.
The electrical current through the BK channel was measured using conventional two-electrode voltage clamp. BK currents were activated by repeating ramp protocols. In brief, the membrane potential was continuously changed from −120 mV to +120 mV within a 2 s period. The threshold for BK activation is approximately +30 mV under control conditions. Compounds were applied for 100 s during which the ramp protocol was repeated 10 times with 10 s intervals. In between the ramp protocols the membrane potential was clamped at −80 mV. The first three compound applications were control blanks where the current level is allowed to stabilize.
In order to evaluate the ability of the compounds to shift the BK activation curve towards lower membrane potentials, the BK current was transformed into conductance by using Ohm's law g=I/(Ememb−Erev), where g is the conductance, I is the current, Ememb is the membrane potential and Erev is the reversal potential. The extracellular solution for these experiments contained 2.5 mM K+ and the intracellular K+ concentration of an oocyte was estimated to be 100 mM. Under those conditions, Nernst equation predicts a reversal potential of Erev=−93.2 mV. The control conductance level at a membrane potential of +100 mV was calculated, and the compound effect was evaluated as the potential difference, ΔV, to the membrane potential at which the same conductance level was obtained in the presence of compound.
The concentration response curve for this potential difference was fitted to the sigmoidal logistic equation: ΔV=ΔVmax/(1+(EC50/[compound])^n), where ΔVmax represents the maximal left shift of the BK activation curve, EC50 is the concentration causing a half maximal response, and n is the slope coefficient.

With CS(=O)(=O)NC(=O)Cc1noc2ccccc12 [Compound 1, N-(2-Benzo[d]isoxazol-3-yl-acetyl)-methanesulfonamide] the melting point was 167 to 171 °C, the “ΔVmax, maximal left-shift of the BK activation curve” value (BK channels; BK channels heterologously expressed in Xenopus laevis oocytes, 0.01-31.6 μM, fitted to sigmoidal logistic equation) was −15 mV and the EC50 (BK channels; BK channels heterologously expressed in Xenopus laevis oocytes, 0.01-31.6 μM, ΔV at control conductance level of +100 mV, fitted to sigmoidal logistic equation, read-out: EC50 for the left-shift of the BKCa-activation curve) was 300 nM. The “BK current level at depolarizing potentials” value (BK channels; increasing concentrations (0.01-31.6 μM), ramp protocol −120 mV to +120 mV, Xenopus laevis oocytes) was “marked increase in the current level”.
